The test system of this experiment is CD2F1 mice, ip Colon 26 adenocarcinoma, median survival T/C. Nature of the experiment: NCI In Vivo Anticancer Drug Screen. Data for tumor model Colon 26 Adenocarcinoma (intraperitoneal) in CD2F1 (CDF1) mice. The settings on record: endpoint: median survival time, higher = longer survival. On the procedure:
The antitumor activity of compounds was measured in mice bearing transplantable tumors. Survival or tumor size were measured and the results are expressed as the measurement made in the treated group (T) divided by the measurement made in the vehicle treated control group (C). The tumor model used in this assay is Colon 26 Adenocarcinoma (intraperitoneal) in CD2F1 (CDF1) mice

[1] abbreviates: dose: 12.5 mg/kg/injection, schedule: Q04DX003 (ip), vehicle: saline with Tween-80.
The mark [2] stands for this setting: dose: 25.0 mg/kg/injection, schedule: Q04DX003 (ip), vehicle: saline with Tween-80.

Values joined by “and” are separate entries in the source; they are usually repeats but may differ in a detail not shown here. Identical values can stand only once. Inconclusive results and toxic doses are left out.

Consider `Nc1ncnc2c1ncn2C1OC(CO)C(O)C1O` (centres undefined), for which the T/C was 101 % of control (dose: 50.0 mg/kg/injection, schedule: Q04DX002 (ip), vehicle: suspension in saline); 90 % of control (dose: 64.0 mg/kg/injection, schedule: Q04DX002 (ip), vehicle: Klucel (hydroxypropylcellulose) (HPC)); 113 % of control (dose: 100.0 mg/kg/injection, schedule: Q04DX002 (ip), vehicle: suspension in saline); 93 % of control (dose: 128.0 mg/kg/injection, schedule: Q04DX002 (ip), vehicle: Klucel (hydroxypropylcellulose) (HPC)); 108 % of control (dose: 200.0 mg/kg/injection, schedule: Q04DX002 (ip), vehicle: suspension in saline); 91 % of control (dose: 256.0 mg/kg/injection, schedule: Q04DX002 (ip), vehicle: Klucel (hydroxypropylcellulose) (HPC)). The T/C is 107 % of control (dose: 400.0 mg/kg/injection, schedule: Q04DX002 (ip), vehicle: suspension in saline); 122 % of control (dose: 800.0 mg/kg/injection, schedule: Q04DX002 (ip), vehicle: suspension in saline); 98 % of control (dose: 1024.0 mg/kg/injection, schedule: Q04DX002 (ip), vehicle: Klucel (hydroxypropylcellulose) (HPC)).

Consider `O=C1C=CN(C2OC(CO)C(O)C2O)C(=O)C1` (centres undefined), for which the T/C (dose: 25.0 mg/kg/injection, schedule: Q01DX005 (ip), vehicle: saline) is 109 % of control; the T/C (dose: 25.0 mg/kg/injection, schedule: Q04DX003 (ip), vehicle: saline) was 112 % of control; the T/C (dose: 50.0 mg/kg/injection, schedule: Q01DX005 (ip), vehicle: saline) was 102 % of control; the T/C (dose: 50.0 mg/kg/injection, schedule: Q04DX003 (ip), vehicle: saline) is 109 % of control; the T/C (dose: 100.0 mg/kg/injection, schedule: Q01DX005 (ip), vehicle: saline) was 98 % of control; the T/C (dose: 100.0 mg/kg/injection, schedule: Q04DX003 (ip), vehicle: saline) was 106 % of control. The T/C is, setting by setting: (dose: 200.0 mg/kg/injection, schedule: Q01DX005 (ip), vehicle: saline) 106 % of control; (dose: 200.0 mg/kg/injection, schedule: Q04DX003 (ip), vehicle: saline) 102 % of control; (dose: 400.0 mg/kg/injection, schedule: Q01DX005 (ip), vehicle: saline) 102 % of control; (dose: 400.0 mg/kg/injection, schedule: Q04DX003 (ip), vehicle: saline) 109 % of control.

Turning to `O=C1c2ccccc2C(=O)c2c(NCCNCCNCCO)ccc(NCCNCCNCCO)c21`, the T/C was 102 % of control (dose: 8.0 mg/kg/injection, schedule: Q01DX009 (ip), vehicle: acid diluted with saline); 97 % of control (dose: 16.0 mg/kg/injection, schedule: Q01DX009 (ip), vehicle: acid diluted with saline); 107 % of control (dose: 32.0 mg/kg/injection, schedule: Q01DX009 (ip), vehicle: acid diluted with saline); 103 % of control (dose: 64.0 mg/kg/injection, schedule: Q01DX009 (ip), vehicle: acid diluted with saline); 87 % of control (dose: 128.0 mg/kg/injection, schedule: Q01DX009 (ip), vehicle: acid diluted with saline).

For the compound `CC(C)NC(=O)OCc1c(COC(=O)NC(C)C)c(-c2ccc(Cl)c(Cl)c2)n2c1CCC2`, the T/C was 173 % of control (dose: 2.5 mg/kg/injection, schedule: Q01DX009 (ip), vehicle: distilled water + Tween-80); 162 % of control (dose: 5.0 mg/kg/injection, schedule: Q01DX009 (ip), vehicle: distilled water + Tween-80); 232 % of control (dose: 10.0 mg/kg/injection, schedule: Q01DX009 (ip), vehicle: distilled water + Tween-80); 289 % of control (dose: 20.0 mg/kg/injection, schedule: Q01DX009 (ip), vehicle: distilled water + Tween-80); 163 % of control (dose: 40.0 mg/kg/injection, schedule: Q01DX009 (ip), vehicle: distilled water + Tween-80).

As to `CCCCCCCC(=O)[O][Hg][CH2]C1COC([CH2][Hg][O]C(=O)CCCCCCC)CO1` (centres undefined), the T/C is 95 % of control under setting [1] and 90 % of control under setting [2].

As to `CC[C@H](CC[C@@H](C)[C@H]1CC[C@H]2[C@@H]3CC=C4C[C@@H](OC(C)=O)CC[C@]4(C)[C@H]3CC[C@]12C)C(C)C`, the T/C is, setting by setting: (dose: 25.0 mg/kg/injection, schedule: Q04DX002 (ip), vehicle: Klucel (hydroxypropylcellulose) (HPC)) 88 % of control; (dose: 50.0 mg/kg/injection, schedule: Q04DX002 (ip), vehicle: Klucel (hydroxypropylcellulose) (HPC)) 92 % of control; (dose: 100.0 mg/kg/injection, schedule: Q04DX002 (ip), vehicle: Klucel (hydroxypropylcellulose) (HPC)) 102 % of control; (dose: 200.0 mg/kg/injection, schedule: Q04DX002 (ip), vehicle: Klucel (hydroxypropylcellulose) (HPC)) 90 % of control; (dose: 400.0 mg/kg/injection, schedule: Q04DX002 (ip), vehicle: Klucel (hydroxypropylcellulose) (HPC)) 97 % of control.

As for `Cc1ccc(C(=O)[O][Hg][CH2]C2COC([CH2][Hg][O]C(=O)c3ccc(C)cc3)CO2)cc1` (centres undefined), the T/C is, setting by setting: (dose: 12.5 mg/kg/injection, schedule: Q04DX003 (ip), vehicle: Klucel (hydroxypropylcellulose) (HPC)) 104 % of control; (dose: 25.0 mg/kg/injection, schedule: Q04DX003 (ip), vehicle: Klucel (hydroxypropylcellulose) (HPC)) 92 % of control.

As for `CCOC(=O)CC(SP(=S)(OC)OC)C(=O)OCC` (centres undefined), the T/C was 103 % of control (dose: 25.0 mg/kg/injection, schedule: Q04DX002 (ip), vehicle: saline); 94 % of control (dose: 50.0 mg/kg/injection, schedule: Q04DX002 (ip), vehicle: saline); 104 % of control (dose: 100.0 mg/kg/injection, schedule: Q04DX002 (ip), vehicle: saline); 90 % of control (dose: 200.0 mg/kg/injection, schedule: Q04DX002 (ip), vehicle: saline); 91 % of control (dose: 400.0 mg/kg/injection, schedule: Q04DX002 (ip), vehicle: saline).

For `C[C@]12CCC(=O)[C@@](C)(CO)[C@@H]1[C@H](O)C[C@H]1C[C@@H]3C[C@@]12CC[C@]3(O)CO`, the T/C is, setting by setting: (dose: 5.0 mg/kg/injection, schedule: Q04DX003 (ip), vehicle: saline with Tween-80) 98 % of control; (dose: 10.0 mg/kg/injection, schedule: Q04DX003 (ip), vehicle: saline with Tween-80) 96 % of control; (dose: 20.0 mg/kg/injection, schedule: Q04DX003 (ip), vehicle: saline with Tween-80) 90 % of control; (dose: 40.0 mg/kg/injection, schedule: Q04DX003 (ip), vehicle: saline with Tween-80) 90 % of control; (dose: 80.0 mg/kg/injection, schedule: Q04DX003 (ip), vehicle: saline with Tween-80) 100 % of control.

`CC(=O)Oc1ccccc1C(=O)O`: the T/C (dose: 72.0 mg/kg/injection, schedule: Q04DX002 (ip), vehicle: saline with Tween-80) was 89 % of control.

As for `CCC(=O)O[C@H]1CC[C@H]2[C@@H]3CCC4=CC(=O)CC[C@]4(C)[C@H]3CC[C@]12C`, the T/C runs as follows: (dose: 80.0 mg/kg/injection, schedule: Q04DX003 (ip), vehicle: saline) 87 % of control; (dose: 160.0 mg/kg/injection, schedule: Q04DX003 (ip), vehicle: saline) 96 % of control; (dose: 640.0 mg/kg/injection, schedule: Q04DX003 (ip), vehicle: saline) 86 % of control.

As to `CC(=O)OCC1(C)C(O)CCC2(C)C1CCC1CC3CC12CCC3(O)CO` (centres undefined), the T/C runs as follows: (dose: 12.5 mg/kg/injection, schedule: Q04DX002 (ip), vehicle: distilled water + Tween-80) 103 % of control; (dose: 25.0 mg/kg/injection, schedule: Q04DX002 (ip), vehicle: distilled water + Tween-80) 111 % of control; (dose: 50.0 mg/kg/injection, schedule: Q04DX002 (ip), vehicle: distilled water + Tween-80) 95 % of control; (dose: 100.0 mg/kg/injection, schedule: Q04DX002 (ip), vehicle: distilled water + Tween-80) 104 % of control.

In the case of `Nc1ncn(C2OC(CO)C(O)C2O)c(=O)n1` (centres undefined), the T/C runs as follows: (dose: 13.0 mg/kg/injection, schedule: Q04DX003 (iv), vehicle: saline) 107 % of control; (dose: 21.0 mg/kg/injection, schedule: Q04DX003 (iv), vehicle: saline) 92 % of control.

For the compound `O=Cc1ccc(C(Cl)(Cl)Cl)cc1`, the T/C under setting [1] was 103 % of control and 107 % of control; the T/C under setting [2] was 106 % of control and 109 % of control; the T/C (dose: 50.0 mg/kg/injection, schedule: Q04DX003 (ip), vehicle: saline with Tween-80) is 114 % of control and 98 % of control; the T/C (dose: 100.0 mg/kg/injection, schedule: Q04DX003 (ip), vehicle: saline with Tween-80) was 96 % of control; the T/C (dose: 200.0 mg/kg/injection, schedule: Q04DX003 (ip), vehicle: saline with Tween-80) is 98 % of control; the T/C (dose: 400.0 mg/kg/injection, schedule: Q04DX003 (ip), vehicle: saline with Tween-80) was 103 % of control.

The record behind these values is PubChem BioAssay AID210 (DTP/NCI, 2004).
